Reference: article PMC9024521, “4-Heteroaryl Substituted Amino-3,5-Dicyanopyridines as New Adenosine Receptor Ligands: Novel Insights on Structure-Activity Relationships and Perspectives” (Pharmaceuticals, 2022)

What was measured:
hA3AR [1] = biological target: T1, hA3AR (Homo sapiens, UniProt P0DMS8); experiment: Competition binding, [125I]AB-MECA, hA3 CHO cell membranes; conditions: displacement of [125I]AB-MECA, hA3 CHO cells; mean ± SEM of four assays
T1 construct: host or cells: CHO cells
T1 sequence (P0DMS8 1-318): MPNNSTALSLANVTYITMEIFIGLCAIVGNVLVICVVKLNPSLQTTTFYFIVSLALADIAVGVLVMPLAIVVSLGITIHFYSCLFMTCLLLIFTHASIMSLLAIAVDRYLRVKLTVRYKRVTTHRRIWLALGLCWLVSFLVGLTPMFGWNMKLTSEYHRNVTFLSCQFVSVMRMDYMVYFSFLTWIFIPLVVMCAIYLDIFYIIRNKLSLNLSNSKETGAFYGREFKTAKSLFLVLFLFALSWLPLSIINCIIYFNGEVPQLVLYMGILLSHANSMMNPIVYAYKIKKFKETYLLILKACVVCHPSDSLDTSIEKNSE
Procedure: (§1) CHO cells transfected with hA1, hA2A, hA2B and hA3 ARs (Perkin Elmer, Boston, MA, USA) were grown adherently and maintained in Dulbecco’s modified Eagle’s medium with nutrient mixture F12, containing 10% fetal calf serum, penicillin (100 U/mL), streptomycin (100 μg/mL), L-glutamine (2 mM) and geneticine (G418; 0.2 mg/mL), at 37 °C, in 5% CO2/95% air, until their use in cAMP assays. For membrane preparation, the culture medium was removed, and the cells were washed with phosphate-buffered saline and scraped off T75 flasks in ice-cold hypotonic buffer (5 mM Tris HCl, 1 mM EDTA, pH 7.4). The cell suspension was homogenized with a Polytron, centrifuged for 30 min at 40,000× g, at 4 °C, and the resulting membrane pellet was used for competition binding experiments.
(§2) All synthesized compounds were tested for their affinity to hA1, hA2A and hA3 ARs. Competition experiments to hA1AR were carried out by incubating 1 nM [^3H]-8-cyclopentyl-1,3-dipropylxanthine ([^3H]-DPCPX) with membrane suspension (50 μg of protein/100 μL) and different concentrations of the examined compounds at 25 °C for 90 min in 50 mM Tris HCl, pH 7.4. Non-specific binding was defined as binding in the presence of 1 μM DPCPX and was always <10% of the total binding. Inhibition experiments to hA2A ARs were performed by incubating the radioligand [^3H]-4-(-2-[7-amino-2-{2-furyl}{1,2,4}triazolo{2,3-a} {1,3,5}triazin-5-yl-amino]ethyl)phenol ([^3H]-ZM241385) (1 nM) with the membrane suspension (50 μg of protein/100 μL) and different concentrations of the examined compounds for 60 min, at 4 °C, in 50 mM Tris HCl (pH 7.4), 10 mM MgCl2. Non-specific binding was determined in the presence of ZM241385 (1 μM) and was about 20% of the total binding. Competition binding experiments to A3ARs were carried out by incubating the membrane suspension (50 μg of protein/100 μL) with 0.5 nM [^125I]-N6-(4-aminobenzyl)-N-methylcarboxamidoadenosine ([^125I]-ABMECA) in the presence of different concentrations of the examined compounds for an incubation time of 120 min, at 4 °C, in 50 mM Tris HCl (pH 7.4), 10 mM MgCl2, 1 mM EDTA. Non-specific binding was defined as binding in the presence of 1 μM ABMECA and was always <10% of the total binding. Bound and free radioactivity were separated by filtering the assay mixture through Whatman GF/B glass-fiber filters, using a Brandel cell harvester (Brandel Instruments, Unterföhring, Germany). The filter bound radioactivity was counted by Packard Tri Carb 2810 TR scintillation counter (Perkin Elmer).
(§3) The protein concentration was determined according to a Bio-Rad method, with bovine albumin as a standard reference. Inhibitory binding constant (Ki) values were calculated from those of IC50 according to the Cheng–Prusoff equation, Ki = IC50/(1 + [C*]/KD*), where [C*] is the concentration of the radioligand, and KD* its dissociation constant. Ki and IC50 values were calculated by non-linear regression analysis, using the equation for a sigmoid concentration-response curve (Graph-PAD Prism, San Diego, CA, USA).

hA2AAR [2] = biological target: T2, hA2AAR (Homo sapiens, UniProt P29274); experiment: cAMP assay in hA2A CHO cells; format: cell-based; conditions: for EC50: cAMP assay, hA2A CHO cells; for hA2AAR Efficacy: normalized: CGS21680 full agonist = 100%
T2 construct: host or cells: CHO cells
T2 sequence (P29274 whole entry): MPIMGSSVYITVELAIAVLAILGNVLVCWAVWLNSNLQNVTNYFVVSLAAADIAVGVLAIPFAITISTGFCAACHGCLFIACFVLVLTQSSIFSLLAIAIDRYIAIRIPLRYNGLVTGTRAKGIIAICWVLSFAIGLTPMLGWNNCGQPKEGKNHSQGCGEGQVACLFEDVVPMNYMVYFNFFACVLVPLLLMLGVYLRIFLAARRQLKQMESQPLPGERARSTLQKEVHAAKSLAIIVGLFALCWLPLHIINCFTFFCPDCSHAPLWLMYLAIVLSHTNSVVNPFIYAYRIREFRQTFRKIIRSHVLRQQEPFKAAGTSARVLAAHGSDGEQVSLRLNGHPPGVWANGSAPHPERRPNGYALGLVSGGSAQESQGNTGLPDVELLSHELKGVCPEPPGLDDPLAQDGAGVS
Procedure: (§4) The amino-3,5-dicyanopyridines 1–21 were tested for their affinity at hA1, hA2A and hA3 ARs, stably transfected in Chinese Hamster Ovary (CHO) cells. Moreover, they were also studied as hA2B agonists by evaluating their stimulatory effect on cAMP production in CHO cells, stably expressing the hA2B AR. […] Due to their interesting pan profile, both compounds 1 and 5 were evaluated as AR agonists also at the hA2A and hA3 subtypes.
as §1
(§5) CHO cells transfected with hAR subtypes were washed with phosphate-buffered saline, detached with tripsine and centrifuged for 10 min at 200× g. Cells were seeded in a 96-well white half-area microplate (Perkin Elmer, Boston, USA) in a stimulation buffer composed of Hank Balanced Salt Solution, 5 mM HEPES, 0.5 mM Ro 20–1724, 0.1% BSA. The cAMP levels were then quantified by using the AlphaScreen cAMP Detection Kit (Perkin Elmer, Boston, MA, USA), following the manufacturer’s instructions. At the end of the experiments, the plates were read with a Perkin Elmer EnSight Multimode Plate Reader.

hA2AAR [3] = biological target: T2, hA2AAR; experiment: Competition binding, [3H]ZM241385, hA2A CHO cell membranes; conditions: displacement of [3H]ZM241385, hA2A CHO cells; mean ± SEM of four assays
Procedure: as §1, §2, §3

hA1AR = biological target: T3, hA1AR (Homo sapiens, UniProt P30542); experiment: Modulation of Forskolin-stimulated cAMP levels in hA1 CHO cells; format: cell-based; conditions: for EC50: footnote c, mean ± SEM of four experiments, read-out: hA1AR EC50 or IC50, potency to modulate Forskolin-stimulated cAMP levels; for hA1AR Efficacy: normalized: CCPA full agonist = 100%, DPCPX inverse agonist = −100%; for hA1AR Profile: pharmacological profile in cAMP assay
T3 construct: host or cells: CHO cells
T3 sequence (P30542 1-326): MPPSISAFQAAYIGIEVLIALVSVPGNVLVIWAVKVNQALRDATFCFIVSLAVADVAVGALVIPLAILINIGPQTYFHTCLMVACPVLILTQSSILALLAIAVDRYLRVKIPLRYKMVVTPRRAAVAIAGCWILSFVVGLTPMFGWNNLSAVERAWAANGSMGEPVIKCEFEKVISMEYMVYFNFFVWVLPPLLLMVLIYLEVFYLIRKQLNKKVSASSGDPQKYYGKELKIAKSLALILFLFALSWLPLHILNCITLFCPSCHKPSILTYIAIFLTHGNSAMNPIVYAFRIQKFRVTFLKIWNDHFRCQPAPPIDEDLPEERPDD
Procedure: as §4, §1, §5

hA3AR [4] = biological target: T1, hA3AR; experiment: Modulation of Forskolin-stimulated cAMP levels in hA3 CHO cells; format: cell-based; conditions: for IC50: cAMP assay, hA3 CHO cells, read-out: hA3AR IC50, potency to modulate Forskolin-stimulated cAMP levels; for hA3AR Efficacy: normalized: 2-Cl-IB-MECA full agonist = 100%
Procedure: as §4, §1, §5

| Ki (hA3AR [1]) [µM] | EC50 (hA2AAR [2]) [µM] | hA2AAR Efficacy (hA2AAR [2]) [%] | Ki (hA2AAR [3]) [µM] | EC50 (hA1AR) [µM] | hA1AR Efficacy (hA1AR) [%] | hA1AR Profile (hA1AR) | IC50 (hA3AR [4]) [µM] | hA3AR Efficacy (hA3AR [4]) [%] | SMILES |
| --- | --- | --- | --- | --- | --- | --- | --- | --- | --- |
| 0.052 ± 0.005 | 0.0151 ± 0.0013 | 39 ± 3 | 0.021 ± 0.002 | 0.0122 ± 0.0012 | 31 ± 3 | Partial Agonist | 0.068 ± 0.006 | 45 ± 4 | N#Cc1c(N)nc(SCc2ncc[nH]2)c(C#N)c1-c1ccco1 [Compound 1, 2-Amino-4-(furan-2-yl)-6-[(1H-imidazol-2-ylmethyl)sulfanyl]pyridine-3,5-dicarbonitrile] |
| 0.025 ± 0.002 | 0.0113 ± 0.001 | 40 ± 3 | 0.024 ± 0.002 | 0.00195 ± 0.00016 | 75 ± 5 | Partial Agonist | 0.033 ± 0.002 | 34 ± 3 | N#Cc1c(N)nc(SCc2ncc[nH]2)c(C#N)c1-c1cccs1 [Compound 5, 2-Amino-6-[(1H-imidazol-2-ylmethyl)sulfanyl]-4-(thiophen-2-yl)pyridine-3,5-dicarbonitrile] |
